Experimental data as given in US6949574B2 (Bristol-Myers Squibb Company, priority 2002, dated 2005).
pIC50: −log10 of the molar value. Read-outs that look alike come from different tables or passages of the source.

Molecular target: T1, human FAAH (Homo sapiens, UniProt O00519)
T1 construct: expressed in transfected cells; host or cells: H4 cells (H4-FAAH, Geneticin-selected); crude membrane homogenates
T1 sequence (O00519 1-579): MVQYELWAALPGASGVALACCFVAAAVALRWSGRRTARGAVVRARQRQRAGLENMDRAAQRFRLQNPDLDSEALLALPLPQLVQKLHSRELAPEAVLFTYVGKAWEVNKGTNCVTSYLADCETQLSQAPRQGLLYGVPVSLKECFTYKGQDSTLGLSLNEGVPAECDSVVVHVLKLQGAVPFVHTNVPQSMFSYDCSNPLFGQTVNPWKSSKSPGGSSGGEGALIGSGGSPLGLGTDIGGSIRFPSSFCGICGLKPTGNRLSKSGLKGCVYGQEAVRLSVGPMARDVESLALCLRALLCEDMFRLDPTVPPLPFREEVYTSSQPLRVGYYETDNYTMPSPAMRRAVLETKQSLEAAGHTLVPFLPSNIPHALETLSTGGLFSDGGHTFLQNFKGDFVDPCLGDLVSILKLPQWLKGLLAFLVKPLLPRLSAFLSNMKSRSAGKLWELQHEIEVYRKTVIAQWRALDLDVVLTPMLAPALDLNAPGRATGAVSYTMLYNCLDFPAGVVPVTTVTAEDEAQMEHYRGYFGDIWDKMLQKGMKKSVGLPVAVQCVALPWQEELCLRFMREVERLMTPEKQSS
Experiment: FAAH activity in membrane homogenates of H4-FAAH cells, [3H]-anandamide hydrolysis
Format: biochemical
Description: Homogenates of crude membranes were prepared from H4 cells that express transfected human FAAH (H4-FAAH cells). Briefly, cells were grown in DMEM supplemented with 10% FBS and Geneticin at a final concentration of 500 μg/ml (Gibco BRL, Rockville, Md.). Confluent cultures of H4-FAAH cells were rinsed twice with phosphate-buffered saline [138 mM NaCl, 4.1 mM KCl, 5.1 mM Na2PO4, 1.5 mM KH2PO4 (pH 7.5), 37° C.] and incubated for 5 to 10 minutes at 4° C. in lysis buffer [1 mM sodium bicarbonate]. Cells were transferred from plates to polypropylene tubes (16×100 mm), homogenized and centrifuged at 32,000×g for 30 minutes. Pellets were resuspended by homogenization in lysis buffer and centrifuged at 32,000×g for 30 minutes. Pellets were resuspended in lysis buffer (15-20 μg protein/ml) then stored at −80° C. until needed. On the day of an experiment, membranes were diluted to 2.67 μg protein/ml in 125 mM Tris-Cl, pH 9.0.
Activity of FAAH was measured using a modification of the method described by Omeir et al., 1995 (Life Sci 56:1999, 1995). Membrane homogenates (240 ng protein) were incubated at room temperature for one hour with 1.67 nM anandamide [ethanolamine 1-^3H] (available from American Radiolabeled Chemical Inc., St Louis, Mo.) and 10 μM anandamide (available from Sigma/RBI, St. Louis, Mo.) in the absence and presence of inhibitors. The reaction was stopped by the addition of 1 volume of a solution of 1:1 methanol and dichloroethane. The mixture was shaken and then centrifuged at 1000×g for 15 minutes to separate the aqueous and organic phases. An aliquot of the aqueous phase, containing [^3H]-ethanolamine was withdrawn and counted by scintillation spectroscopy. Data were expressed as the percentage of [^3H]-ethanolamine formed versus vehicle, after subtraction of the background radioactivity determined in the presence of 10 μM arachidonyl trifluoromethyl ketone (ATFMK), an inhibitor of FAAH. IC50 values were determined using a four-parameter logistic equation for dose-response curves.

[1] = H4-FAAH cell membranes, 10 μM anandamide, room temperature, one hour, read-out: IC50

SMILES	pIC50	pIC50 [1]
CCCCCCCCCCCOc1ccc(NC(=O)Oc2ccccc2F)cc1 [Example 104, 4-Undecyloxyphenylcarbamic acid, 2-fluorophenyl ester]	7.00 to 8.00	
CCCCCCCCCCCCOc1ccc(NC(=O)O/N=C/c2ccc(F)cc2)cc1 [Example 42, 4-Fluorobenzaldehyde, O-[[(4-dodecyloxyphenyl)amino]carbonyl]oxime]		> 8.00
O=C(Nc1ccc2oc3ccccc3c2c1)O/N=C/c1ccc(F)cc1 [Example 153, 4-Fluorobenzaldehyde, O-[[(2-dibenzofuranyl)amino]carbonyl]oxime]		7.00 to 8.00
CCc1ccc(-c2ccc(NC(=O)O/N=C/c3ccc(F)cc3)cc2)cc1 [Example 75, 4-Fluorobenzaldehyde, O-[[(4′-ethyl-[1,1′-biphenyl]-4-yl)amino]carbonyl]oxime]		> 8.00
CCCCOc1ccc(C(CC)NC(=O)Oc2ccc(F)cc2F)cc1 (stereo not drawn) [Example 131, [1-(4-Butoxy-phenyl)-propyl]-carbamic acid 2,4-difluoro-phenyl ester]		7.00 to 8.00
CCCCCOc1ccc(NC(=O)O/N=C/c2ccc(F)cc2)cc1 [Example 14, 4-Fluorobenzaldehyde, O-[[(4-pentyloxyphenyl)amino]carbonyl]oxime]	> 8.00	
CCCCCCCCCCOc1ccc(NC(=O)Oc2ccccc2F)cc1 [Example 102, 4-Decyloxyphenylcarbamic acid, 2-fluorophenyl ester]		> 8.00
CCCCOc1ccc(C(CC)NC(=O)Oc2cccc(C(F)(F)F)c2)cc1 (stereo not drawn) [Example 130, [1-(4-Butoxy-phenyl)-propyl]-carbamic acid 3-trifluoromethyl-phenyl ester]		7.00 to 8.00
CCCOc1ccc(NC(=O)O/N=C/c2ccc(F)cc2)cc1 [Example 13, 4-Fluorobenzaldehyde, O-[[(4-propoxyphenyl)amino]carbonyl]oxime]		7.00 to 8.00
O=C(Nc1cccc(Oc2ccccc2)c1)O/N=C/c1cccnc1 [Example 87, 3-Pyridinecarboxaldehyde, O-[[(3-phenoxyphenyl)amino]carbonyl]oxime]		> 8.00
CCCCCCCCCCOc1ccc(NC(=O)O/N=C/c2cccnc2)cc1 [Example 35, 3-Pyridinecarboxaldehyde, O-[[(4-decyloxyphenyl)amino]carbonyl]oxime]		> 8.00
CCCCCCCCCOc1ccc(NC(=O)O/N=C/c2cccc(F)c2)cc1 [Example 52, 3-Fluorobenzaldehyde, O-[[(4-nonyloxyphenyl)amino]carbonyl]oxime]		> 8.00
CCCCOc1ccc(CNC(=O)Oc2ccc(C(F)(F)F)cc2)cc1 [Example 119, 4-(Butoxyphenylmethyl)carbamic acid, 4-(trifluoromethyl)phenyl ester]		7.00 to 8.00
CCCCCOc1ccc(NC(=O)ON=C(C)C)cc1 [Example 8, 2-Propanone, O-[[(4-pentyloxyphenyl)amino]carbonyl]oxime]		7.00 to 8.00
CCCCCCCCOc1ccc(NC(=O)Oc2ccccc2)cc1 [Example 98, 4-Octyloxyphenylcarbamic acid, phenyl ester]		> 8.00
CCCCCCCCCOc1ccc(NC(=O)O/N=C/c2ccc(F)cc2F)cc1 [Example 51, 2,4-Difluorobenzaldehyde, O-[[(4-nonyloxyphenyl)amino]carbonyl]oxime]		> 8.00
CCCCCCCCCCCCOc1ccc(NC(=O)Oc2ccccc2)cc1 [Example 105, 4-Dodecyloxyphenylcarbamic acid, phenyl ester]		> 8.00
CCCCCCCCCOc1ccc(NC(=O)O/N=C/c2cccc(F)c2F)cc1 [Example 55, 2,3-Difluorobenzaldehyde, O-[[(4-nonyloxyphenyl)amino]carbonyl]oxime]		> 8.00

SMILES	pIC50	pIC50 [1]
CCCCCCOc1ccc(NC(=O)O/N=C/c2ccc(F)cc2)cc1 [Example 24, 4-Fluorobenzaldehyde, O-[[(4-hexyloxyphenyl)amino]carbonyl]oxime]		> 8.00
CCCCCCCCC(=O)Nc1ccc(NC(=O)O/N=C/c2ccccc2)cc1 [Example 136, Benzaldehyde, O-[[(4-Nonanoylamino-phenyl)amino]carbonyl]oxime]		7.00 to 8.00
CCCCCCCCCOc1ccc(NC(=O)O/N=C/c2ccc(F)cc2)cc1 [Example 48, 4-Fluorobenzaldehyde, O-[[(4-nonyloxyphenyl)amino]carbonyl]oxime]		> 8.00
CCCCOc1ccc(C(CC)NC(=O)Oc2ccccc2)cc1 (stereo not drawn) [Example 134, [1-(4-Butoxy-phenyl)-propyl]-carbamic acid phenyl ester]		7.00 to 8.00
CCCCOc1ccc(NC(=O)O/N=C/c2cccnc2)cc1OC [Example 21, 3-Pyridinecarboxaldehyde, O-[[(4-butoxy-3-methoxyphenyl)amino]carbonyl]oxime]		< 6.30
O=C(Nc1ccc(OCc2ccccc2)cc1)O/N=C/c1ccccc1 [Example 84, Benzaldehyde, O-[[[4-(phenylmethoxy)phenyl]amino]carbonyl]oxime]		> 8.00
CCCCOc1ccc(C(CC)NC(=O)Oc2ccc(C(C)C)cc2)cc1 (stereo not drawn) [Example 129, [1-(4-Butoxy-phenyl)-propyl]-carbamic acid 4-isopropyl-phenyl ester]		6.30 to 7.00
CCCCCCCCC(=O)Nc1ccc(NC(=O)O/N=C/c2ccc(F)cc2F)cc1 [Example 139, 2,4-Difluorobenzaldehyde, O-[[(4-Nonanoylamino-phenyl)amino]carbonyl]oxime]		> 8.00
O=C(Nc1ccc(Oc2ccccn2)cc1)O/N=C/c1ccc(F)cc1 [Example 148, 4-Fluorobenzaldehyde, O-[[[4-[(2-pyridinyl)oxy]phenyl]amino]carbonyl]oxime]		7.00 to 8.00
CCCCCCCCCOc1ccc(NC(=O)O/N=C/c2ccc(F)c(F)c2)cc1 [Example 49, 3,4-Difluorobenzaldehyde, O-[[(4-nonyloxyphenyl)amino]carbonyl]oxime]		> 8.00
CCCCCCCCCOc1ccc(NC(=O)ON=C(C)C)cc1 [Example 31, 2-Propanone, O-[[(4-nonyloxyphenyl)amino]carbonyl]oxime]		> 8.00
CCCCCCCCC(=O)Nc1ccc(NC(=O)O/N=C/c2ccc(F)c(F)c2)cc1 [Example 140, 3,4-Difluorobenzaldehyde, O-[[(4-Nonanoylamino-phenyl)amino]carbonyl]oxime]		7.00 to 8.00
O=C(Nc1ccc(OCCCN2CCOCC2)cc1)O/N=C/c1ccc(F)cc1 [Example 58, 4-Fluorobenzaldehyde, O-[[4-[3-(4-morpholinyl)propoxyphenyl]amino]carbonyl]oxime]		< 6.30
CCCCOc1ccc(NC(=O)Oc2ccccc2OC)cc1 [Example 110, 4-Butoxyphenylcarbamic acid, 2-methoxyphenyl ester]		< 6.30
CCCCOc1ccc(NC(=O)O/N=C/c2ccc(F)cc2)cc1OC [Example 20, 4-Fluorobenzaldehyde, O-[[(4-butoxy-3-methoxyphenyl)amino]carbonyl]oxime]		6.30 to 7.00
CCCCOc1ccc(NC(=O)O/N=C/c2cccnc2)cc1 [Example 44, 3-Pyridinecarboxaldehyde, O-[[(4-butoxyphenyl)amino]carbonyl]oxime]		7.00 to 8.00
CCCOc1ccc(NC(=O)O/N=C/c2ccccc2)cc1 [Example 10, Benzaldehyde, O-[[(4-propoxyphenyl)amino]carbonyl]oxime]		> 8.00
CCCOc1ccc(NC(=O)ON=C(C)C)cc1 [Example 7, 2-Propanone, O-[[(4-propoxyphenyl)amino]carbonyl]oxime]		6.30 to 7.00
